Laboratory results as given in US20130297023A1, “Methods and Devices For Treating Intervertebral Disc Disease” (priority 2012, published 2013).

What was measured:
human NP cells [1] = experiment: Real-time qPCR and western blotting of LPS- or IL-1-induced MMP-13, MMP-1, ADAMTS-4 and iNOS in human NP cell monolayers; format: cell-based; conditions: co-treatment MyD88i 100 μM, 24 hr
Description: (§1) Human spine segments (T11/12 to S1) were received within 24 hours of death of donors from the Gift of Hope Organ and Tissue Donor Network (Elmhurst, Ill.), after obtaining consent from the families. Each of the lumbar segments underwent magnetic resonance imaging (MRI). Intact disc specimens (Thompsons grade 2 or 3) were removed and processed aseptically (Thompson et al., 1990; Kim et al., 2009). After dissection of the NP portion of discs either from human or bovine tails, NP cells were released by enzymatic digestion in Dulbecco's modified Eagle's medium [(DMEM)/Ham's F-12 (1:1)] culture medium with sequential treatments of 0.2% pronase and 0.025% collagenase P, as previously described (Kim et al.; Loeser et al., 2003). Alginate beads and monolayers were prepared for long-term (21 days) and short-term studies (1-2 days) as previously described by our group (Kim et al.; Im et al., 2003; Im et al., 2007b; Im et al., 2008; Li et al., 2008a).
(§2) For short-term monolayer cultures, isolated NP cells from either bovine tails or human spine discs were counted and plated onto 12-well plates at 8×10^5 cells/cm^2 as previously described (Im et al., 2003; Im et al., 2007b). Cells were stimulated with either IL-1 (10 ng/mL, NCI) or LPS (10 μg/mL, Sigma-Aldrich, St. Louis, Mont.) in the presence or absence of MyD88 peptide inhibitor (MyD88i; IMGENEX, San Diego, Calif.) at the concentration of 100 μM, in 1 mL per well of serum-free medium for 24 hours at 37° C. under 5% CO2. Supernatants were collected 24 hours after the initiation of each treatment and subjected to western blotting analyses for secreted matrix-degrading enzyme production. Cells were harvested and prepared for either cell lysates or total RNA extraction followed by real-time qPCR analyses, as previously described (Li et al., 2008b). 18s rRNA was used for normalization.
(§3) Total RNA was isolated from the cells using Trizol reagent (Invitrogen, Carlsbad, Calif.) following the instructions provided by the manufacturer. Reverse transcription was carried out with 1 μg total RNA using the ThermoScript™ RT-PCR system (Invitrogen, Carlsbad, Calif.) for first strand cDNA synthesis.
(§4) For real-time qPCR, cDNA was amplified using MyiQ Real-Time qPCR Detection System (Bio-Rad Hercules, Calif.). The synthesized cDNA was subjected to real-time qPCR utilizing the Bio-Rad iQTM SYBR Green supermix (Bio-Rad Hercules, Calif.). A threshold cycle (Ct value) was obtained from each amplification curve using iQ5 Optical System Software provided by the manufacturer (Bio-Rad Hercules, CA). Relative mRNA expression was determined using the ^ΔΔCT and calculated as follows: ^ΔΔCT=^ΔCT (gene of interest)−^ΔCT (endogenous control). Gene quantification was conducted for entire, individual treatment groups and expressed in terms of fold change from untreated control levels. Expression of 18s rRNA was used as the internal control. The deviations in samples represent 3 different donors in 3 separate experiments.
Cell and tissue lysates were prepared using modified RIPA buffer, as previously described (Li et al., 2008a; Li et al., 2008c). The total protein concentrations of cell lysates were determined by a bicinchoninic acid protein assay (Pierce, Rockford, Ill., USA). An equal amount of protein was resolved by 10% SDS-polyacrylamide gels (SDS-PAGE) and transferred to a nitrocellulose membrane for immunoblot analyses, as described previously (Im et al., 2007b). MMP-13 and MMP-1 antibodies were provided by courtesy of Dr. Gillian Murphy (Cambridge University, UK) Immunoreactivity was visualized using the ECL system (Amersham Biosciences, Piscataway, N.J., USA) and the Signal Visual Enhancer system (Pierce), which magnifies the signal.

bovine NP cells = experiment: Real-time qPCR of LPS- or IL-1-induced catabolic genes and TLR-2 in bovine NP cell monolayers; format: cell-based
Description: as §1, §2, §3, §4
Therefore, NP cells were treated with MyD88i (100 μM), LPS or IL-1, individually, or combinations of LPS and MyD88i or IL-1 and MyD88i for 24 hours. Resulting cellular responses were then analyzed for alterations in gene expression and/or secreted protein levels. Our data reveal the significant upregulation of collagenase (MMP-13) and aggrecanases (ADAMTS-4, ADAMTS-5) after stimulation with either LPS or IL-1 compared to control (untreated) in bovine NP cells (FIGS. 1A˜C).

human NP cells [2] = experiment: Gelatin zymography of conditioned media from LPS- or IL-1-stimulated human NP cells; format: cell-based; conditions: MyD88i 100 μM, 24 hr, p<0.01
Description: as §2, with “Cells were harvested and prepared for either cell lysates or total RNA extraction followed by real-time qPCR analyses, as previously described (Li et al., 2008b). 18s rRNA was used for normalization.” left out
Gelatin zymography was then performed as previously described (Gupta et al., 2007). […] After development, gel images were captured and the clear bands were analyzed using “ImageJ” image analysis software (www.imagej.nih.gov), and were expressed in arbitrary optical density units. […]
Because MyD88i effectively suppresses expression and/or production of multiple cartilage degrading enzymes, TLR-2 and stress-associated genes after stimulation with either LPS or IL-1 (FIGS. 1˜4), the role of MyD88i in antagonizing catalytic enzyme activity was further analyzed by performing reverse zymography (FIG. 5). […]

mouse lumbar spine discs = experiment: Ex vivo intradiscal injection organ culture model, Safranin O-fast green histology for PG loss; conditions: intradiscal injection 150 μM per disc, IL-1 100 ng/mL, 6 days organ culture
Description: Lumbar spine segments from deceased mice were dissected under sterile conditions within 12 hrs after sacrifice at the Rush University animal facility for ex vivo organ culture, as previously described (Chiba et al., 1998). The requirement for the pre-treatment of MyD88 has been previously described (Ahmad et al., 2007). Therefore, intradiscal pre-injection of MyD88i ([…]) en bloc was performed using a 30-gauge needle (30 G, 1.50 μL volume). Injected discs were then separated and incubated in DMEM/Ham's F-12 medium supplemented with 1% mini-ITS. After 24 hrs, the MyD88i pre-injected discs were challenged with either IL-1 (100 ng/mL) or LPS (10 μg/mL) and further incubated for 6 days. Harvested discs were fixed in 4% paraformaldehyde and then decalcified in EDTA, which was changed every 5 days. The decalcified discs were paraffin embedded. Serial disc sections of exactly 5-μm thickness were obtained to prepare slides. Safranin O-fast green staining was performed to assess general morphology and the loss of PG in disc ground substance.
Harvested discs were fixed in 4% paraformaldehyde and decalcified in EDTA, which was changed every 5 days. The decalcified discs were paraffin embedded. Serial disc sections of exactly 5-μm thickness were obtained to prepare slides. […]

[3] = MyD88i 100 μM, IL-1 10 ng/mL, 24 hr, qPCR, p<0.05
[4] = MyD88i 100 μM, LPS 10 μg/mL, 24 hr, qPCR, p<0.01

DRQIKIWFQNRRMKWKKRDVLPGT [MyD88i]
IL-1-induced collagenases MMP-13 and MMP-1, mRNA and protein levels (human NP cells [1]; IL-1 10 ng/mL, p<0.05): significant decreases | induction of ADAMTS-4 expression by IL-1 (human NP cells [1]; IL-1 10 ng/mL, qPCR, p<0.05): significantly reduced | IL-1-induced iNOS gene levels (human NP cells [1]; IL-1 10 ng/mL, qPCR, p<0.05 vs IL-1 alone): significant suppression | LPS-induced collagenases MMP-13 and MMP-1, mRNA and protein levels (human NP cells [1]; LPS 10 μg/mL, p<0.01): significant decreases | induction of ADAMTS-4 expression by LPS (human NP cells [1]; LPS 10 μg/mL, qPCR, p<0.01): significantly reduced | LPS-induced iNOS gene levels (human NP cells [1]; LPS 10 μg/mL, qPCR, p<0.01 vs LPS alone): significant suppression | IL-1-induced upregulation of catabolic gene expression (MMP-13, ADAMTS-4, ADAMTS-5) (bovine NP cells; [3]): significantly suppresses | IL-1-stimulated TLR-2 levels (bovine NP cells; [3]): significant decrease | LPS-induced upregulation of catabolic gene expression (MMP-13, ADAMTS-4, ADAMTS-5) (bovine NP cells; [4]): significantly suppresses | LPS-stimulated TLR-2 levels (bovine NP cells; [4]): significant decrease | minimal dose demonstrating maximal effects (bovine NP cells; initial experiments, monolayer cultures, different concentrations of MyD88i): 100 µM | IL-1-induced catalytic enzyme activity (gelatin zymography, densitometry) (human NP cells [2]; IL-1 10 ng/mL): markedly suppressed | LPS-induced catalytic enzyme activity (gelatin zymography, densitometry) (human NP cells [2]; LPS 10 μg/mL): markedly suppressed | IL-1-induced PG loss in disc organ culture (mouse lumbar spine discs): significantly attenuates
